Entries after “also recorded” stand apart in the source; their conditions may differ. Like-named read-outs stand apart in the source and are kept apart here.
Assays:
[1] = tested on: Zajdel ascitic hepatoma; experiment: Survival of rats with implanted Zajdel ascitic hepatoma, comparison with 6-mercaptopurine (Example 8); type: in vivo, female Wistar rats; details: for Period of survival (% of control): Wistar rats; for antitumor effect / average period of survival vs non-treated control: in words (Example 8)
From the text: (§1) The antineoplastic activity of the compounds of the invention has been investigated by testing the compounds of the chemical group "in vivo" against experimental rodent tumors such as Crocker's sarcoma (S180), solid-type Ehrlich carcinoma (STE), kreb's ascites tumor (Kr2), all maintained in mice H, Gardner lymphosarcoma (LsG, C3H mice), P388 and L1210 leukemias (DBA2 mice), Zajdela ascites hapatoma (ZAH, Wistar rats), Yoshida ascites reticulosarcoma (Y, Wistar rats) and B16 melanoma (C57B16 mice) in experiments according to Jelinek, V. (Neoplasma 12, 469 (1969); ibid. 7, 146 (1960) and "in vitro" experiments using radioactive precursors of nucleic acids and proteins according to Miko, M. et al. (Cancer Res. 39, 4242 (1979); Neoplasma 26, 449 (1979); ibid. 16, 161--1969) with minor modifications (Mattern J.: Studies on the Drug Sensitivity of Short Term Cultured Tumor Cell Suspensions. In "Human Tumors in Short Term Culture" (Dendy, P. P. ed.), p. 301, Academic Press 1976). Therapeutic synergism has been studied by the method of Carter, W. H. et al. (cf. Cancer Res. 42, 2963--1982).
(§2) Fifty infantile female Wistar rats weighing approximately 60 g are divided into five groups: one control and four experimental ones, 10 animals each. A lethal dose of the tumor ascites from Zajdel ascitic hepatoma is implanted intraperitoneally in all the animals. The experimental groups are treated with the substance Ia in water suspension. The suspension contains the substance Ia in such an amount that a dose of 0.4 or 0.2 ml of the suspension p.o. is equal to a dose of 200 or 100 mg Ia/Kg. This dose is applied to the experimental animals once a day, five times altogether, starting on the first day after the implantation.

[2] = tested on: Yoshida tumor; experiment: Survival of rats with implanted Yoshida tumor (Example 6); type: in vivo, female Wistar rats; details: Wistar rats
From the text: as §1
(§3) Additionally, the compounds of the present invention are useful in increasing survival time of the suitable biological subjects, namely mice and rats bearing tumors STE, ZAH and/or Y: because of the lethal nature of the test system employed, the antitumor effect of the compounds is illustrated by a side comparison of the survival time of treated animals (survival for a longer time) with the untreated control groups of animals (cf. Examples 5, 6, and 7). In these typical experiments, ten animals are in the experimental groups, and the treated groups of animals survive for a longer time than the untreated controls.
as §2

[3] = tested on: Yoshida tumor; experiment: Survival of rats with implanted Yoshida tumor (Example 7); type: in vivo, female Wistar rats; details: Wistar rats
From the text: as §1, §3, §2

[4] = tested on: Yoshida ascitic tumor cells; experiment: Cytotoxicity in vitro: initial velocity of 3H/14C precursor incorporation in Yoshida ascitic tumor cells (Example 11); type: cell-based; details: for IC50: Rattus norvegicus, YOSHIDA
From the text: as §1
(§4) In analogous experiments, the degree of influence on the initial velocity of the incorporation of ^3 H from 5-iodo-2'-deoxy-(6-^3 H)uridine or that of ^14 C from a mixture of L-(U-^14 C)-aminoacids to the fraction of Yoshida ascitic tumor cells insoluble in trichloroacetic acid serves as the measure of cytotoxicity. The value IC50 is the concentration of a substance that reduces the initial velocity of the ^3 H or ^14 C incorporation down to 50% of the noninfluenced control cells.

[5] = tested on: tumor cells; experiment: Comparison of cytotoxicity of Ia and Ib in vitro, precursor incorporation (Example 12); type: cell-based
From the text: as §1, §4
In analogous experiments, the following values of IC50 were determined: […]

[6] = tested on: Ehrlich tumor (STE); experiment: Antitumor activity against implanted Ehrlich tumor (STE) in mice, tumor weight (Example 4); type: in vivo, female mice H; details: mice H
From the text: as §1
Sixty female mice H weighing approximately 20 g are divided into three groups: one control group and two experimental groups of 20 animals each. A lethal dose of the Crocker tumor (S180) homogenate is implanted subcutaneously in all the animals. The experimental groups are treated with the substance Ia in water suspension. The suspension contains the substance Ia in such an amount that a dose 0.4 or 0.2 ml of the suspension p.o. is equal to a dose 200 or 100 mg Ia/kg. This dose is administered to the experimental animals once a day, eight times altogether, starting on the fifth day after the implantation. On the fourteenth day after the implantation, a half of the animals in each group is sacrificed in ether anaesthesia, and tumors are removed and weighed. The remaining animals are left to monitor the time of death.

[7] = tested on: Ehrlich Carcinoma cells; experiment: Cytotoxicity in vitro: 14C precursor incorporation in Ehrlich Carcinoma cells (Example 10); type: cell-based; details: for IC50: Ehrlich, read-out: ID50 (14C incorporation)
From the text: as §1
The degree of influence on the incorporation of ^14 C from adenine-^14 C and valine-^14 C to the fraction of Ehrlich Carcinoma cells insoluble in trichloroacetic acid serves as the measure of cytotoxicity. The value ID50 is the concentration of a cytostatic that reduces the ^14 C incorporation down to 50% of the non-influencedcontrol cells.

[8] = literature; cited from earlier work
[9] = tested on: Yoshida ascitic sarcoma; experiment: Therapeutic synergism with Benfluron, survival of rats with Yoshida ascitic sarcoma (Example 9); type: in vivo, female Wistar rats; details: for Average period of survival (days): geometric average (fiducial limits P=0.95)
From the text: as §1
One hundred and twenty seven infantile female Wistar rats weighing 50-60 g are divided into sixteen groups: one control group of 25 animals and fifteen experimental groups of 6 to 7 animals. A lethal dose of the tumor ascites from Yoshida ascitic sarcoma is implanted intraperitoneally in all the animals. The experimental groups are treated with the substance Ia in water suspension, water solution of a cytostatic Benfluron (CAS 80427-58-3), or a combination of both the substances. The suspension or solution contains the substances in such a concentration that doses of 0.4 or 0.2 and 0.1 ml of the suspension/solution p.o. are equal to doses of 200 or 100 and 50 mg Ia/kg or to doses of 160, 80 or 40 mg of Benfluron/kg. Doses of the substance Ia are administered to the experimental animals once a day, four times altogether, starting on the first day after the tumor implantation. Benfluron is administered only once, on the fourth day after the tumor implantation, 7 hours after the last dose of the substance Ia.

[10] = tested on: Zajdel ascitic hepatoma; experiment: Survival of rats with implanted Zajdel ascitic hepatoma (Example 5); type: in vivo, female Wistar rats; details: Wistar rats
From the text: as §1, with “2963--1982). […]” for “2963--1982).”

[11] = Toxicity and tolerability by oral route; type: in vivo, small rodents; rat; mouse; man
From the text: The compounds described herein can be administered to suitable biological subjects, particularly mammals, for their therapeutic antitumor effects, by conventional modes of administration alone, but preferably as active ingredients with any conventional suitable non-toxic pharmaceutical carrier, dissolved or suspended, for example, in water, saline, polyethylene or polypropylene alcohols, etc. The administration is preferably by the oral route. […]. The dosage administered will be dependent upon the type of tumor for which treatment is desired, the type of biological subject involved, weight, body surface, localization of the tumor, its morphological type, the frequency of treatment, individual tolerance and responsiveness of each subject, etc; for example, by oral route, the prolonged administration of 100, 200 mg/kg daily appears to be well tolerated both in the rat and in the mouse. The assessment drawn from the biological tests is that doses of 20 mg/kg (e.g. about 740 mg/m^2) may be regarded as well tolerated in man.

[12] = tested on: Crocker tumor (S180); experiment: Antitumor activity against Crocker tumor (S180) in mice, tumor weight (Example 3); type: in vivo, female mice H; details: S180, mice H, p.o. 200 or 100 mg/kg once a day, eight times; day 14
From the text: as §1
Sixty female mice H weighing approximately 20 g are divided into three groups: one control group and two experimental groups of 20 animals each. A lethal dose of the Crocker tumor (S180) homogenate is implanted subcutaneously in all the animals. […]

[13] = precursor 5-iodo-2'-deoxy(6-3H)uridine, read-out: IC50 (initial velocity of 3H incorporation)
[14] = precursor L-(U-14C)aminoacids, read-out: IC50 (initial velocity of 14C incorporation)
[15] = precursor 5-iodo-2'-deoxy(6-3H)uridine (Example 12)
[16] = precursor L-(U-14C)aminoacids (Example 12)

Sc1ncnc2nc[nH]c12 [6-mercaptopurine, reference compound]
Period of survival (% of control) ([1]; p.o. 5 × 20 mg/kg (Example 8)): 101 % of control
Period of survival (% of control) ([1]; p.o. 5 × 40 mg/kg (Example 8)): 105 % of control
antitumor effect / average period of survival vs non-treated control [1]: ineffective; also recorded: inactive
Period of survival (% of control) ([2]; p.o. 5 × 20 mg/kg (Example 6)): 109 % of control
Period of survival (% of control) ([2]; p.o. 5 × 40 mg/kg (Example 6)): 127 % of control
Period of survival (% of control) ([3]; p.o. 5 × 20 mg/kg (Example 7)): 107 % of control
Period of survival (% of control) ([3]; p.o. 5 × 40 mg/kg (Example 7)): 156 % of control
IC50 [4, 13]: > 10000 µM
IC50 [4, 14]: > 229 µM

O=C(NCCCl)Oc1ncnc2nc[nH]c12 [Substance Ib, 6-[N-(2-Chloroethyl)carbamoyl]oxypurine]
Period of survival (% of control) ([2]; p.o. 5 × 100 mg/kg (Example 6)): 100 % of control
Period of survival (% of control) ([2]; p.o. 5 × 200 mg/kg (Example 6)): 83 % of control
IC50 [5, 15]: 55 µM
IC50 [5, 16]: 80 µM
Tumor weight (% of control) ([6]; p.o. 8 × 100 mg/kg): 76 % of control
Tumor weight (% of control) ([6]; p.o. 8 × 200 mg/kg): 81 % of control

Nc1nc(S)c2[nH]cnc2n1 [2-amino-6-mercaptopurine, 2-Amino-6-mercaptopurine, reference compound]
IC50 ([7]; precursor adenine-14C): > 600 µM
IC50 ([7]; precursor valine-14C): > 600 µM

CCN(CC)C(=O)Nc1ncnc2nc[nH]c12 [N-(6-purinyl)-N', N'-diethylurea]
antineoplastic action [8]: weak antineoplastic action

Nc1ncnc2c1ncn2C(=O)NCCCl [N-(2-chloroethyl)-6-aminopurine-9-carboxamide]
biological activity [8]: did not exhibit any biological activity

CN(C)CCOc1cc2c(c3ccccc13)-c1ccccc1C2=O.Cl [Benfluron, 5-[2-(N, N-Dimethylamino)ethoxy]-7-oxo-7H-benzo(c)fluorene hydrochloride, reference compound]
Average period of survival (% of control) ([9]; Benfluron 40 mg/kg p.o. once): 104 % of control
Average period of survival (days) ([9]; Benfluron 40 mg/kg p.o. once): 7.67 (6.9; 8.6) days
Average period of survival (% of control) ([9]; Benfluron 80 mg/kg p.o. once): 104 % of control
Average period of survival (days) ([9]; Benfluron 80 mg/kg p.o. once): 7.61 (6.5; 8.9) days
Average period of survival (% of control) ([9]; Benfluron 160 mg/kg p.o. once): 106 % of control
Average period of survival (days) ([9]; Benfluron 160 mg/kg p.o. once): 7.79 (6.9; 8.8) days

O=C(NCCCl)Sc1ncnc2nc[nH]c12 [Substance Ia, 6-[N-(2-Chloroethyl)carbamoyl]thiopurine]
Period of survival (% of control) ([1]; p.o. 5 × 100 mg/kg (Example 8)): 120 % of control
Period of survival (% of control) ([1]; p.o. 5 × 200 mg/kg (Example 8)): 128 % of control
antitumor effect / average period of survival vs non-treated control [1]: statistically significantly higher average period of survival
effectiveness vs thioguanine and/or 6-mercaptopurine ([7]; Ehrlich ascites carcinoma cells, in words): more effective
IC50 ([7]; precursor adenine-14C): 94 µM
IC50 ([7]; precursor valine-14C): 155 µM
Period of survival (% of control) ([10]; p.o. 5 × 100 mg/kg): 117 % of control
Period of survival (% of control) ([10]; p.o. 5 × 200 mg/kg): 126 % of control
Period of survival (% of control) ([2]; p.o. 5 × 100 mg/kg (Example 6)): 134 % of control
Period of survival (% of control) ([2]; p.o. 5 × 200 mg/kg (Example 6)): 127 % of control
Average period of survival (% of control) ([9]; Ia 4 × 50 mg/kg p.o.): 125 % of control
Average period of survival (days) ([9]; Ia 4 × 50 mg/kg p.o.): 9.20 (7.6; 11.1) days
Average period of survival (% of control) ([9]; Ia 4 × 100 mg/kg p.o.): 149 % of control
Average period of survival (days) ([9]; Ia 4 × 100 mg/kg p.o.): 10.94 (9.0; 13.3) days
Average period of survival (% of control) ([9]; Ia 4 × 200 mg/kg p.o.): 121 % of control
Average period of survival (days) ([9]; Ia 4 × 200 mg/kg p.o.): 8.86 (7.4; 10.7) days
survival vs control group ([9]; Yoshida ascitic sarcoma, in words, over 29 days): survive longer
Period of survival (% of control) ([3]; p.o. 5 × 100 mg/kg (Example 7)): 124 % of control
Period of survival (% of control) ([3]; p.o. 5 × 200 mg/kg (Example 7)): 158 % of control
IC50 [5, 15]: 39 µM
IC50 [5, 16]: 62 µM
LD50 ([11]; in vivo, small rodents, oral route): ≥ 3000 mg/kg
toxicity ([11]; in words): practically non-toxic
Tumor weight (% of control) ([6]; p.o. 8 × 100 mg/kg): 80 % of control
Tumor weight (% of control) ([6]; p.o. 8 × 200 mg/kg): 70 % of control
IC50 [4, 13]: 25 µM
IC50 [4, 14]: 26 µM
effectiveness vs thioguanine and/or 6-mercaptopurine ([4]; Yoshida ascites tumor cells, in words): more effective
average values of the tumor weight vs non-treated control [12]: Statistically significantly lower average values of the tumor weight

From patent US4720497A, “6-purinyl N-/2-chloroethyl/carbamate and thiocarbamate and process for the preparation thereof” (SPOFA, Spojene Podniky pro Zdravotnickou Vyrobu, priority 1984, dated 1988)
